≈ marks a conversion by molar mass, not a printed value.
How the values were obtained:
Assay in all cases: Antibacterial activity in vitro, MIC by broth microdilution
E. coli Esco_25922 = type: cell-based; conditions: Table 3, Strain ID M: E. coli Esco_25922; unit assumed
Summary of the method: (§1)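 Broth microdilution per NCCLS in cation-adjusted Mueller-Hinton broth, final inoculum 3×10^5–7×10^5 CFU/mL, 2-fold serial drug dilutions, 35° C. for 18-24 hours. S. pneumoniae grown in CAMHB with 2-5% lysed horse blood under 5-10% CO2. MIC is the lowest concentration preventing visible growth.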

E. faecalis Enfa_29212 = type: cell-based; conditions: Table 3, Strain ID C: E. faecalis Enfa_29212
Summary of the method: as §1

[1] = system: S. epidermidis Step_14990; type: cell-based; conditions: Table 3, Strain ID A: S. epidermidis Step_14990; unit assumed
Summary of the method: as §1

[2] = system: S. epidermidis Step_f50654 Pen S; type: cell-based; conditions: Table 3, Strain ID B: S. epidermidis Step_f50654 Pen S; unit assumed
Summary of the method: as §1

S. pyogenes Stpy_8668 = type: cell-based; conditions: Table 3, Strain ID D: S. pyogenes Stpy_8668
Summary of the method: as §1

[3] = system: S. pneumoniae Stpn_280-962 Pen S; type: cell-based, Streptococcus pneumoniae; conditions: Table 3, Strain ID G: S. pneumoniae Stpn_280-962 Pen S
Summary of the method: as §1

[4] = system: S. pneumoniae Stpn_297-749 Pen R; type: cell-based, Streptococcus pneumoniae; conditions: Table 3, Strain ID F: S. pneumoniae Stpn_297-749 Pen R
Summary of the method: as §1

S. pneumoniae Stpn_49619 = type: cell-based, Streptococcus pneumoniae; conditions: Table 3, Strain ID E: S. pneumoniae Stpn_49619
Summary of the method: as §1

[5] = system: S. pneumoniae Stpn_Erm 6849; type: cell-based, Streptococcus pneumoniae; conditions: Table 3, Strain ID H: S. pneumoniae Stpn_Erm 6849; unit assumed
Summary of the method: as §1

[6] = system: S. pneumoniae Stpn_Erm S 4297; type: cell-based, Streptococcus pneumoniae; conditions: Table 3, Strain ID I: S. pneumoniae Stpn_Erm S 4297
Summary of the method: as §1

[7] = system: S. pneumoniae Stpn_Mef 5654; type: cell-based, Streptococcus pneumoniae; conditions: Table 3, Strain ID J: S. pneumoniae Stpn_Mef 5654; unit assumed
Summary of the method: as §1

[8] = system: S. pneumoniae Stpn_Mef S 3427; type: cell-based, Streptococcus pneumoniae; conditions: Table 3, Strain ID K: S. pneumoniae Stpn_Mef S 3427
Summary of the method: as §1

H. influenzae Hain_49247 = type: cell-based, Haemophilus influenzae; conditions: Table 3, Strain ID L: H. influenzae Hain_49247; unit assumed
Summary of the method: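 Visible-growth inhibition defined the MIC, obtained by NCCLS broth microdilution at 35° C. over 18-24 hours with a final inoculum of 3×10^5–7×10^5 CFU/mL.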

SMILES	MIC (E. coli Esco_25922) [µg/mL]	MIC (E. faecalis Enfa_29212)	MIC [1] [µg/mL]	MIC [2] [µg/mL]	MIC (S. pyogenes Stpy_8668)	MIC [3]	MIC [4]	MIC (S. pneumoniae Stpn_49619)	MIC [5] [µg/mL]	MIC [6]	MIC [7] [µg/mL]	MIC [8]	MIC (H. influenzae Hain_49247) [µg/mL]	MIC (E. faecalis Enfa_29212; unit assumed) [µg/mL]	MIC ([8]; unit assumed) [µg/mL]	MIC (S. pyogenes Stpy_8668; unit assumed) [µg/mL]	MIC ([3]; unit assumed) [µg/mL]	MIC ([4]; unit assumed) [µg/mL]	MIC (S. pneumoniae Stpn_49619; unit assumed) [µg/mL]	MIC ([6]; unit assumed) [µg/mL]
CC[C@H]1OC(=O)[C@H](C)C(=O)[C@H](C)[C@@H](O[C@@H]2O[C@H](C)C[C@H](N(C)C)[C@H]2O)[C@@](C)(OC)C[C@@H](C)C(=O)[C@H](C)[C@@H]2[C@@H]1OC(=O)N2CCCCn1cnc(-c2ccccc2)c1 [Compound 6221]	25 (≈ 31.4 µM)	≦0.05	0.1 (≈ 0.125 µM)	0.1 (≈ 0.125 µM)	≦0.05	≦0.05	≦0.05	≦0.05	0.1 (≈ 0.125 µM)	≦0.05	0.4 (≈ 0.502 µM)	≦0.05	3.13 (≈ 3.93 µM)							
CC[C@H]1OC(=O)[C@H](C)C(=O)[C@H](C)[C@@H](O[C@@H]2O[C@H](C)C[C@H](N(C)C)[C@H]2O)[C@@](C)(OC)C[C@@H](C)C(=O)[C@H](C)[C@H]2N(CCCCn3cnc(-c4cccnc4)c3)C(=O)O[C@]12CC [Compound 7280]	25 (≈ 30.3 µM)		0.2 (≈ 0.242 µM)	0.2 (≈ 0.242 µM)	≦0.05	≦0.05	≦0.05	≦0.05	0.4 (≈ 0.484 µM)	≦0.05	0.4 (≈ 0.484 µM)		6.25 (≈ 7.57 µM)	0.1 (≈ 0.121 µM)	0.1 (≈ 0.121 µM)					
CC[C@H]1OC(=O)[C@H](C)C(=O)[C@H](C)[C@@H](O[C@@H]2O[C@H](C)C[C@H](N(C)C)[C@H]2O)[C@@](C)(OC)C[C@@H](C)C2=N[C@@H](C)CN3C(=O)O[C@H]1[C@H]3[C@H]2C [Compound 6223]	50 (≈ 78.4 µM)		1.56 (≈ 2.45 µM)	3.13 (≈ 4.91 µM)					> 50		0.78 (≈ 1.22 µM)		> 50	0.78 (≈ 1.22 µM)	0.4 (≈ 0.627 µM)	0.2 (≈ 0.314 µM)	0.2 (≈ 0.314 µM)	0.2 (≈ 0.314 µM)	0.2 (≈ 0.314 µM)	> 50
CC[C@H]1OC(=O)[C@H](C)C(=O)[C@H](C)[C@@H](O[C@@H]2O[C@H](C)C[C@H](N(C)C)[C@H]2O)[C@@](C)(OC)C[C@@H](C)C(=O)[C@H](C)[C@H]2NC(=O)O[C@@H]21 [Compound 4266]	> 50		3.13 (≈ 5.23 µM)	3.13 (≈ 5.23 µM)		≦0.05	≦0.05		> 50		0.2 (≈ 0.334 µM)		25 (≈ 41.8 µM)	1.56 (≈ 2.61 µM)	0.1 (≈ 0.167 µM)	0.1 (≈ 0.167 µM)			0.2 (≈ 0.334 µM)	> 50
CC[C@H]1OC(=O)[C@H](C)C(=O)[C@H](C)[C@@H](O[C@@H]2O[C@H](C)C[C@H](N(C)C)[C@H]2O)[C@@](C)(OC)C[C@@H](C)C(=O)[C@H](C)[C@@H]2[C@@H]1OC(=O)N2CCCCc1ccnc2ccccc12 [Compound 4711]	50 (≈ 63.9 µM)	≦0.05	0.1 (≈ 0.128 µM)	0.1 (≈ 0.128 µM)	≦0.5	≦0.5	≦0.5	≦0.5	6.25 (≈ 7.99 µM)		0.1 (≈ 0.128 µM)	≦0.5	1.56 (≈ 1.99 µM)							0.2 (≈ 0.256 µM)
CC[C@H]1OC(=O)[C@H](C)C(=O)[C@H](C)[C@@H](O[C@@H]2O[C@H](C)C[C@H](N(C)C)[C@H]2O)[C@@](C)(OC)C[C@@H](C)C(=O)[C@H](C)[C@H]2N(CCCCn3cnc4ccccc43)C(=O)O[C@]12CC [Compound 7282]	12.5 (≈ 15.6 µM)		0.4 (≈ 0.501 µM)	0.2 (≈ 0.25 µM)	≦0.05	≦0.05	≦0.05	≦0.05	0.78 (≈ 0.976 µM)		0.4 (≈ 0.501 µM)		3.13 (≈ 3.92 µM)	0.1 (≈ 0.125 µM)	0.1 (≈ 0.125 µM)					0.2 (≈ 0.25 µM)
CC[C@H]1OC(=O)[C@H](C)C(=O)[C@H](C)[C@@H](O[C@@H]2O[C@H](C)C[C@H](N(C)C)[C@H]2O)[C@@](C)(OC)C[C@@H](C)C(=O)[C@H](C)[C@@H]2[C@@H]1OC(=O)N2CCCn1cnc2cccnc21 [Compound 4716]	> 50		6.25 (≈ 8.25 µM)	12.5 (≈ 16.5 µM)		≦0.5	≦0.5	≦0.5	> 50		0.78 (≈ 1.03 µM)		25 (≈ 33 µM)	0.78 (≈ 1.03 µM)	0.4 (≈ 0.528 µM)	0.1 (≈ 0.132 µM)				25 (≈ 33 µM)
CC[C@H]1OC(=O)[C@H](C)C(=O)[C@H](C)[C@@H](O[C@@H]2O[C@H](C)C[C@H](N(C)C)[C@H]2O)[C@@](C)(OC)C[C@@H](C)C(=O)[C@H](C)[C@@H]2[C@@H]1OC(=O)N2CCCCc1ccc2ccccc2n1 [Compound 5960]	25 (≈ 32 µM)	≦0.05	0.2 (≈ 0.256 µM)	0.2 (≈ 0.256 µM)	≦0.05	≦0.05	≦0.05	≦0.05	25 (≈ 32 µM)		0.2 (≈ 0.256 µM)	≦0.05	3.13 (≈ 4 µM)							0.1 (≈ 0.128 µM)
CC[C@H]1OC(=O)[C@H](C)C(=O)[C@H](C)[C@@H](O[C@@H]2O[C@H](C)C[C@H](N(C)C)[C@H]2O)[C@@](C)(OC)C[C@@H](C)C(=O)[C@H](C)[C@H]2N(CCCCn3cnc(-c4ccccc4)c3)C(=O)O[C@]12CC [Compound 7281]	25 (≈ 30.3 µM)		0.2 (≈ 0.242 µM)	0.1 (≈ 0.121 µM)	≦0.05	≦0.05	≦0.05	≦0.05	0.2 (≈ 0.242 µM)	≦0.05	0.4 (≈ 0.485 µM)	≦0.05	3.13 (≈ 3.79 µM)	0.1 (≈ 0.121 µM)						
CC[C@H]1OC(=O)[C@H](C)C(=O)[C@H](C)[C@@H](O[C@@H]2O[C@H](C)C[C@H](N(C)C)[C@H]2O)[C@@](C)(OC)C[C@@H](C)C2=NCCN3C(=O)O[C@H]1[C@H]3[C@H]2C [Compound 6222]	50 (≈ 80.2 µM)		1.56 (≈ 2.5 µM)	1.56 (≈ 2.5 µM)					> 50		0.78 (≈ 1.25 µM)		25 (≈ 40.1 µM)	0.4 (≈ 0.641 µM)	0.4 (≈ 0.641 µM)	0.2 (≈ 0.321 µM)	0.2 (≈ 0.321 µM)	0.4 (≈ 0.641 µM)	0.2 (≈ 0.321 µM)	> 50

Reference: patent US6756359B2, “C12 modified erythromycin macrolides and ketolides having antibacterial activity” (Chiron Corporation, priority 2001, dated 2004)
